Measurements as given in patent publication US20080248953A1, “Use of Bacteriocins For Promoting Plant Growth and Disease Resistance” (MCGILL UNIVERSITY, priority 2005, published 2008).

How the values were obtained:
Format in all cases: in vivo, Glycine max
[1] = tested on: phenylalanine ammonia lyase (PAL); test: PAL activity in soybean leaves after treatment
Procedure: (§1) Soybean (Glycine max L. Merr. cv. OAC Bayfield) seeds were surface sterilized in 10% bleach, rinsed several times with distilled water and then germinated and grown in Vermiculite™ (Holiday, Montreal) in a growth chamber under a 16 h/8 h (day/night) regime (natural light supplemented with high pressure sodium lamps to reach the appropriate daylight), at 25±1° C., until they reached vegetative cotyledon (VC) stage (Fehr and Caviness, 1977).
(§2) Treatments of chitin hexamer and thuricin 17 were applied when the seedling reached the first trifoliate stage (˜2 weeks old). Chitin hexamer and thuricin 17 treatments were applied through cut stems, as described by Orozco-Cardenas and Ryan (1999). The plants were excised at the base of the stem with a sharp scalpel and promptly placed in 2 mL Eppendorff™ tubes containing 0.5 mL of 100 μmol L^−1 chitin hexamer [(GlcNAc)6], 0.5 mL of […] thuricin 17, and chitin hexamer+thuricin 17 mixed (1:1) solution in phosphate buffer (15 mM sodium phosphate, pH 6.5). The control plants were treated with phosphate buffer solution alone. Once all the solution was taken up by the plants (4-6 h), they were immediately transferred to glass test tubes containing 20 mL distilled water. The plants were kept under constant white light (85 μmol·m^−2·s^−1). […]
(§3) Leaf samples (300 mg fresh weight) were extracted in 4 mL of buffer (50 mM Tris pH 8.5, 14.4 mmol L^−1 2-mercaptoethanol, 1% w/v insoluble polyvinyl-polypyrrorolidone) and centrifuged at 6,000 g for 10 min at 4° C. The total protein concentration in soluble enzyme extracts was determined using the Bradford (1976) assay.
(§4) The method of Beaudoin-Eagan and Thorpe (1985) was used to estimate phenylalanine ammonia lyase (PAL) and tyrosine ammonia lyase (TAL) activities. […] The amounts of trans-cinnamic and p-coumaric acids formed were determined by measuring absorbance at 290 and 330 nm, respectively, against an identical mixture in which D-phenylalanine was substituted for L-phenylalanine and D-tyrosine for L-tyrosine. […]

[2] = tested on: tyrosine ammonia lyase (TAL); test: TAL activity in soybean leaves after treatment
Procedure: as §1, §2, §3, §4

total phenolic compounds = test: Total phenolics in soybean leaves (Folin-Ciocalteu)
Procedure: as §1
as §2, with “alone.” for “alone. Once all the solution was taken up by the plants (4-6 h), they were immediately transferred to glass test tubes containing 20 mL distilled water. The plants were kept under constant white light (85 μmol·m^−2·s^−1).”
Total phenolic content was determined by the Folin-Ciocalteu method (Singleton and Rossi, 1965). […] After 3 min, 0.475 mL of 1 mol L^−1 Na2CO3 was added and after 1 h absorbance was measured. […] The total phenolic content was expressed as gallic acid equivalents (GAE) in mg g^−1 fresh weight (FW).

peroxidase (POD) = test: POD activity in soybean leaves; conditions: 72 h after treatment
Procedure: as §1
as §2, with “6.5).” for “6.5). The control plants were treated with phosphate buffer solution alone. Once all the solution was taken up by the plants (4-6 h), they were immediately transferred to glass test tubes containing 20 mL distilled water. The plants were kept under constant white light (85 μmol·m^−2·s^−1).”
The activity of peroxidase (POD) was assessed using the method of Chance and Maehly (1955). […] The reaction was started with addition of 20 μL of 40 mM H2O2 and the change in the absorbance at 470 nm was recorded for 1 min. The activity of peroxidase was calculated using an extinction coefficient for the tetraguaiacol of 26.6 mM^−1 cm^−1 at 470 nm. […]

[3] = tested on: superoxide dismutase (SOD); test: SOD activity in soybean leaves
Procedure: as §1
as §2, with “alone.” for “alone. Once all the solution was taken up by the plants (4-6 h), they were immediately transferred to glass test tubes containing 20 mL distilled water. The plants were kept under constant white light (85 μmol·m^−2·s^−1).”
The activity of superoxide dismutase (SOD) was determined by measuring its ability to inhibit the photoreduction of nitroblue tetrazolium (NBT) following the method of Giannopolitis and Ries (1977). […] Absorbance was recorded at 560 nm. […]

catalase (CAT) = test: Catalase activity staining after PAGE; conditions: soybean leaves
Procedure: Treatments of chitin hexamer and thuricin 17 were applied when the seedling reached the first trifoliate stage (˜2 weeks old). Chitin hexamer and thuricin 17 treatments were applied through cut stems, as described by Orozco-Cardenas and Ryan (1999). The plants were excised at the base of the stem with a sharp scalpel and promptly placed in 2 mL Eppendorff™ tubes containing 0.5 mL of 100 μmol L^−1 chitin hexamer [(GlcNAc)6], 0.5 mL of […] thuricin 17, and chitin hexamer+thuricin 17 mixed (1:1) solution in phosphate buffer (15 mM sodium phosphate, pH 6.5). The control plants were treated with phosphate buffer solution alone. Once all the solution was taken up by the plants (4-6 h), they were immediately transferred to glass test tubes containing 20 mL distilled water. The plants were kept under constant white light (85 μmol·m^−2·s^−1). Leaves were collected at 12, 24, 36, 48, 60 and 72 h after elicitor treatment, weighed, placed in plastic bags and stored immediately at −80° C.
For the catalase activity (CAT) staining after 12.5% PAGE, the gel was incubated with 3.2 mM H2O2 for 20 min, and a treatment with a solution containing 1% FeCl3 and 1% K3Fe(CN)6 for 10 min, as described by Racchi et al (2001).

PAL activity time course ([1]; 12 to 72 h after treatment): increased continuously
PAL activity increase compared with control ([1]; 60 h after treatment): 8.4%
PAL activity greater than the control ([1]; 72 h after treatment): 18.1%
TAL activity time course ([2]; 12 to 72 h after treatment): increased continuously
TAL activity increase compared with the control ([2]; 48 h after treatment): 18.8%
TAL activity increase compared with the control ([2]; 72 h after treatment): 23.8%
POD activity increase compared with control (peroxidase (POD)): 40.3%
induction of SOD activity [3]: not induced
SOD activity increase compared with control ([3]; 48 h after treatment): 24.9%
induction of CAT activity (catalase (CAT)): elicited increases
SMILES: CC(=O)N[C@H]1[C@H](O[C@H]2[C@H](O)[C@@H](NC(C)=O)[C@H](O[C@H]3[C@H](O)[C@@H](NC(C)=O)C(O)O[C@@H]3CO)O[C@@H]2CO)O[C@H](CO)[C@@H](O[C@@H]2O[C@H](CO)[C@@H](O[C@@H]3O[C@H](CO)[C@@H](O[C@@H]4O[C@H](CO)[C@@H](O)[C@H](O)[C@H]4NC(C)=O)[C@H](O)[C@H]3NC(C)=O)[C@H](O)[C@H]2NC(C)=O)[C@@H]1O (stereo partly drawn) [chitin hexamer, chitin hexamer [(GlcNAc)6]]
total phenolics increase compared with the control (total phenolic compounds; 36 h after treatment): 15.3%
total phenolics increase compared with the control (total phenolic compounds; 72 h after treatment): 1.4%
